This is an account of results in publication PMC10846046, “The mechanism of action of auranofin analogs in B. cenocepacia revealed by chemogenomic profiling” (Microbiology Spectrum, 2024).

Assay [1] has as its target T1, TrxB (thioredoxin reductase) (Burkholderia cenocepacia, UniProt B4EBR9).
T1 construct: full gene in pET24b+, C-terminal 6xHis tag kept, E. coli BL21(DE3); Ni-NTA and size exclusion
Nature of the assay: DTNB reduction, absorbance at […] nm. In kind it is biochemical.

The target in assay [2] is T2, GOR (glutathione reductase) (Burkholderia cenocepacia, UniProt B4E8M8).
T2 construct: full gene in pET-22+, C-terminal 6xHis tag kept, E. coli BL21(DE3)-Gold; purified as TrxB
T2 sequence (B4E8M8 1-451): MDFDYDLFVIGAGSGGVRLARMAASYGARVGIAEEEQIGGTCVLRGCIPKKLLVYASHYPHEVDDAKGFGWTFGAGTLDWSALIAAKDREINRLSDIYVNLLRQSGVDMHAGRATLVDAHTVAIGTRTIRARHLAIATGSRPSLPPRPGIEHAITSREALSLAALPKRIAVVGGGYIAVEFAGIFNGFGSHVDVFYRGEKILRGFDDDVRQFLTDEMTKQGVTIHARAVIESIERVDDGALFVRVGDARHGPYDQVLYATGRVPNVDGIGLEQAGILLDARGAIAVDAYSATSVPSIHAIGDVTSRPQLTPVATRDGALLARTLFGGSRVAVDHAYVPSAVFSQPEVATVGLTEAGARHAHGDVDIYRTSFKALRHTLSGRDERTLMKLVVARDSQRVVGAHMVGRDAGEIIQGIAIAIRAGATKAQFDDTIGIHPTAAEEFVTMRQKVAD
Nature of the assay: NADPH consumption, absorbance at […] nm. It counts as biochemical. Particulars: GSSG as electron acceptor.

T1 sequence (B4EBR9 1-320): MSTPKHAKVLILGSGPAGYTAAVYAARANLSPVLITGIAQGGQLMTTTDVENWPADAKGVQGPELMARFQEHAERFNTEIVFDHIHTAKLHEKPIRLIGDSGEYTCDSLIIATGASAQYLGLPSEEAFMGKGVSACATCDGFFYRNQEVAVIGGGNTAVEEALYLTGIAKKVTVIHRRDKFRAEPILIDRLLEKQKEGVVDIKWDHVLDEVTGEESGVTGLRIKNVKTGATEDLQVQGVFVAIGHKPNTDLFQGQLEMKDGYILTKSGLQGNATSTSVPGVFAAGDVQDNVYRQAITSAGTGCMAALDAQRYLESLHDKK

Take `NC(=O)C1=CN([C@@H]2O[C@H](COP(=O)(O)OP(=O)(O)OC[C@H]3O[C@@H](n4cnc5c(N)ncnc54)[C@H](OP(=O)(O)O)[C@@H]3O)[C@@H](O)[C@H]2O)C=CC1` [NADPH]: the “DTNB reduction, absorbance at 412 nm” value in assay [1] (DTNB as electron acceptor) is given as “in the presence of substrate DTNB is reduced to TNB, with NADPH as a source”. In addition, the “NADPH consumption, absorbance at 340 nm” value in assay [2] was “oxidized glutathione is reduced to reduced glutathione, with NADPH as a source of electrons”.
For the compound `O=C(O)c1cc(SSc2ccc([N+](=O)[O-])c(C(=O)O)c2)ccc1[N+](=O)[O-]` [DTNB], the “DTNB reduction, absorbance at 412 nm” value in assay [1] (NADPH as electron source) is recorded as “in the presence of substrate DTNB is reduced to TNB, with NADPH as a source”.
